The numbers were not newly measured in patent publication US11591275B2, “Smart release potash fertilizer granules” (RYNAN TECHNOLOGIES PTE LTD, priority 2018, dated 2023), which cites them from elsewhere.

For this series the following is noted: for pKa: of the organic acid in the extended release layer.

Broadly, the pKa is the negative logarithm of the acid dissociation constant. With `O=C(O)C(=O)O` [Oxalic Acid], the pKa is listed as 4.10.

In the case of `O=C(O)Cc1cccc2ccccc12` [1-Naphthalene Acetic Acid, 1-Naphthalene acetic acid], the pKa is 4.23. For the setting “acid associated with the anion pendant group of the anti-caking copolymer”, the “pKa* of associated acids” value is reported as 4.23.
